Ends that are not written are not given here.
Experiments:
[1] = tested on: Lentivirus; assay: Lentivirus particle (physical) titer by Lenti-X GoStix Plus after packaging with a CP generator plasmid; assay type: cell-based; details: FIG. 25; generator plasmid 0.5, 5, 50 ng; normalised to six no-CP controls
Experimental: (§1) Cyclic peptides are used herein to improve viral titer and transduction efficiency during lentiviral production. Lentivirus was produced using Takara Bio lentivirus packaging kit either with (left panels) or without (right panels; bars labeled CTRL) a cyclic peptide generator plasmid. The cyclic peptides produced by different amounts (e.g., 0.5 ng, 5 ng and 50 ng) of corresponding generator plasmids were CSSLT (SEQ ID NO: 37), CGSTKS (SEQ ID NO: 43), CKYEE (SEQ ID NO: 40), CPYTD (SEQ ID NO: 44), CPLQVP (SEQ ID NO: 45). 5 ng plasmid experiment for CGSTKS (SEQ ID NO: 43) failed and is not shown. The virus was collected, and particle titers were enumerated using Takara Bio Lenti-X GoStix Plus quantitative lentiviral titer test. The biological titer was determined by transducing fresh HEK293 cells with the various lentiviral preparations (e.g., packaged with or without a cyclic peptide). The fold difference in particle titer and transduction unit titer is calculated by normalizing to the average of six control lentiviral transductions from packaging runs without cyclic peptide. The control (CTRL) conditions illustrate negligible noise.
This example illustrates methodologies for Cyclic peptide-enhanced lentiviral vector production. • 1) Cells were seeded at 4-5×10^6 cells per 10-cm plate, 24 hours prior to transfection, to achieve 80-90% confluence at the time of transfection. • 2) 7.0 μg of lentiviral vector plasmid DNA was diluted in sterile water to a volume of 600 μl along with a cyclic peptide generator that expresses a cyclic peptide. • 3) Titration of cyclic peptide plasmid DNA concentrations, from 0.5 ng to 50 ng, was used in this Example. However, the amount of required plasmid DNA depends on many factors, including the specific cyclic peptide being expressed, the cyclic peptide generator (e.g. more efficient cyclic peptide generators may need less DNA), and promoter strength (the pCMV promoter driving strong expression is used in this Example). • 4) Between 4-8 control conditions (depending on number of experimental conditions) were also prepared that are identical to the above, except that no cyclic peptide plasmid was added. • 5) This DNA was added to a tube of Lenti-X Packaging Single Shots and vortexed to mix. • 6) The mixture was incubated for 10 minutes at room temperature to allow the formation of nanoparticle complexes, then briefly centrifuged. • 7) The entire 600 μl of nanoparticle complex solution was added dropwise to the packaging cells, which were then rocked gently to mix. • 8) Lentiviral packaging. […] They were centrifuged or filtered to remove cellular debris, using a filter of cellulose acetate or polysulfone, not nitrocellulose. • 10) Virus production was verified and can be quantified using Lenti-X GoStix™ Plus or any other standard methodology. Then, the virus can be used to transduce target cells or stored at −80° C. • 11) Next, for each viral production condition (e.g., different cyclic peptide packaging conditions, CP dosages, and controls), a three order of magnitude serial dilution at 10-fold dilution steps was performed. • 12) All viral samples were then transduced, harboring a GFP transgene, into fresh HEK293 cells. • 13) After 3 days, the transduced cells were collected, and analyzed them by flow cytometry (see FIG. 26). • 14) Finally, the biological titer (flow cytometry) and physical titer (GoStix) were normalized to the no-CP control to determine the fold improvements in both viral titer and infectiousness. […]

[2] = tested on: Lentivirus; assay: Lentivirus biological titer (flow cytometry of transduced HEK293 cells) after packaging with a CP generator plasmid; assay type: cell-based; details: for lentiviral biological (transduction unit) titer, fold difference to control: FIG. 25, generator plasmid 0.5, 5, 50 ng, HEK293 cells
Experimental: as §1
FIG. 26. Exemplary representative flow cytometry raw data illustrating that when cyclic peptide CGSTKS (SEQ ID NO: 43) is present during lentiviral production, the biological titer increases by over 8-fold compared to when the cyclic peptide is absent. This figure depicts the raw flow cytometry data used to determine the biological titer of lentiviral samples. This is an example of the data that was used to determine the lentiviral biological titers in FIG. 25. The X-axis of each graph represents the forward light scattering (FSC) from flow cytometry. The Y-axis represents the GFP intensity of each cell. A 100-fold dilution of Lentivirus with a GFP payload produced either in the presence (A) or absence (B) of cyclic peptide were used to transduce HEK293 cells. A 100-fold dilution of the preparation was used (e.g., without physical titer normalization) to ensure a direct, batch-to-batch comparison of the impact of the cyclic peptide on viral packaging performance. • Part A—Flow cytometry raw data (with minor forward and side scatter gating to remove irrelevant particles) of HEK293 transduced with a lentiviral preparation produced in the presence of cyclic peptide CGSTKS (SEQ ID NO: 43) generated from a plasmid constructed transduced into packaging cells at 0.5 ng. • Part B—Flow cytometry raw data (with minor forward and side scatter gating to remove irrelevant particles) of HEK293 transduced with a lentiviral preparation produced without cyclic peptide.
This example illustrates methodologies for Cyclic peptide-enhanced lentiviral vector production. • 1) Cells were seeded at 4-5×10^6 cells per 10-cm plate, 24 hours prior to transfection, to achieve 80-90% confluence at the time of transfection. • 2) 7.0 μg of lentiviral vector plasmid DNA was diluted in sterile water to a volume of 600 μl along with a cyclic peptide generator that expresses a cyclic peptide. • 3) Titration of cyclic peptide plasmid DNA concentrations, from 0.5 ng to 50 ng, was used in this Example. […]

[3] = tested on: AAV6; assay: Single-site amino acid substitution scanning of CPs by enrichment score in AAV6; assay type: cell-based, adeno-associated virus; details: FIG. 29, relative to original CP
From the text: This plot visually depicts the functional impact of mutations on a particular cyclic peptide as measured by enrichment score. The heatmap provides valuable insights into the mutational landscape of cyclic peptides, highlighting positions where certain amino acid substitutions are either not tolerated (e.g., resulting in depletion), are neutral (e.g., resulting in similar enrichment scores), or are favored (e.g., resulting in higher enrichment, indicating enhanced cyclic peptide variants).
The heatmap is structured with rows indicating the position of the original amino acid, while the columns represent the position of the mutated amino acid (for a given row). The X-axis corresponds to the 20 natural amino acid substitutions for a given cyclic peptide residue index. The Y axis represents the amino acids present in a specific cyclic peptide, starting from the top with the “scar” residue from the peptide cyclization splicing reaction of DNA expressed cyclic peptides. The scar residue is typically amino acids containing a nucleophilic side chain like cysteine, serine, or threonine. Each row is labeled by the native amino acid of a given CP with amino acid positions going from top to bottom (e.g. index 1 is at the top, followed by index 2 followed by, index 3, etc. . . . ). The final amino acid at the bottom cyclizes with the scar residue at top. […]

[4] = tested on: AAV2-GFP; assay: Transduction efficiency (TU:VG ratio) of AAV2-GFP packaged in cells expressing a CP; assay type: cell-based, adeno-associated virus; details: FIG. 23; CP plasmid 0.3 ng to 100 ng, versus control without CP
From the text: AAV2-GFP were harvested and assayed for biological and physical titer as described in FIG. 20
FIG. 24. […] This figure depicts the raw flow cytometry data used to determine the biological titer of AAV samples. This is an example of the data that was used to determine the biological titers in FIG. 23. The X-axis of each graph represents the forward light scattering (FSC) from flow cytometry. The Y-axis represents the GFP intensity of each cell. A 1000-fold dilution of AAV2-GFP particles produced either in the presence (A) or absence (B) of cyclic peptide were used to transduce HEK293 cells. A 1000-fold dilution of the preparation was used (e.g., without physical titer normalization) to ensure a direct, batch-to-batch comparison of the impact of cyclic peptide on viral packaging performance.
As used herein, the term “transduction efficiency” refers to the effectiveness (efficiency) of viral particles in delivering their genetic payload to the target cells. This efficiency may be represented by the transducing units to vector genomes ratio (TU:VG). Viral formulations with enhanced transduction efficiency can achieve greater numbers of DNA delivery events for the same number of DNA-containing viral particles. […] Enhanced transduction efficiency may be achieved by optimizing the cellular environment for viral production, leading to viral particles with improved capsid structure, viral particle biochemistry, or viral particle assembly. Increasing transduction efficiency refers to improvements in the TU:VG ratio, which encompasses both infectivity and biological titer.
• 1. A 100-mm cell culture dish was reseeded with 4.0×10^6 Hek293T cells in high glucose DMEM culture medium supplemented with 10% FBS. • 2. […] A jetOPTIMUS DNA transfection reagent i used during the transfection protocol (from Polyplus). • 3. 12-16 hours after transfection, media was replaced with low glucose DMEM culture medium supplemented with 1% FBS, 1×Glutamax, 10 mM HEPES, and 0.075% sodium bicarbonate. • 4. Cells and media were harvested 4 days after transfection and frozen in 1 mL aliquots. • 5. Frozen aliquots were thawed and lysed using AAVMax Lysis Reagent (Life Technologies, USA, A50520). 100 uL of AAVMax Lysis buffer was added to 900 uL of cell and media. Mixture was incubated for 2 hours with rotating. Debris was pelleted at 5,000xg for 15 minutes. AAV containing supernatant was collected. • 6. The physical and biological titers of the harvested AAV samples were determined by qPCR and biological viral titer measurement as described in Example 1.
Full, but non-functional viral particles represent a major manufacturing challenge for AAV gene therapies. At present, there is no process capable of purifying the functional viral particles from the full, but non-functional fraction.

## CPYTD: engineered cyclic peptide, SEQ ID NO: 44 (also: cyclic, closure not given here)
[1]
  lentiviral physical (particle) titer, fold difference to control: unexpected degree of improvement
[2]
  lentiviral biological (transduction unit) titer, fold difference to control: unexpected degree of improvement

## Ser2Pro: CSSLT with serine in residue index 2 substituted with proline (CPSLT; cyclic; Cyclic peptide that was found to enhance AAV TU:VG ratio and lentiviral titer.)
[3]
  enrichment factor of single-site substitution variant: substantially increased enrichment factors

## CGSTKS: engineered cyclic peptide, SEQ ID NO: 43 (also: cyclic, closure not given here)
[1]
  lentiviral physical (particle) titer, fold difference to control: unexpected degree of improvement
[2]
  lentiviral biological (transduction unit) titer, fold difference to control: unexpected degree of improvement
[2]; FIG. 26, generator plasmid at 0.5 ng, 100-fold dilution on HEK293 cells, versus no CP
  increase of lentiviral biological titer: over 8 fold

## CSSLT: engineered cyclic peptide, SEQ ID NO: 37 (also: cyclic, closure not given here)
[4]
  transduction efficiency of AAV2-GFP produced in the presence of CP: improvements in transduction efficiency
[1]
  lentiviral physical (particle) titer, fold difference to control: unexpected degree of improvement
[2]
  lentiviral biological (transduction unit) titer, fold difference to control: unexpected degree of improvement

## CPLQVP: engineered cyclic peptide, SEQ ID NO: 45 (also: cyclic, closure not given here)
[1]
  lentiviral physical (particle) titer, fold difference to control: unexpected degree of improvement
[2]
  lentiviral biological (transduction unit) titer, fold difference to control: unexpected degree of improvement

## CKYEE: engineered cyclic peptide, SEQ ID NO: 40 (also: cyclic, closure not given here)
[4]
  transduction efficiency of AAV2-GFP produced in the presence of CP: improvements in transduction efficiency
[1]
  lentiviral physical (particle) titer, fold difference to control: unexpected degree of improvement
[2]
  lentiviral biological (transduction unit) titer, fold difference to control: unexpected degree of improvement

Reference: patent US20230416307A1, “[…] PEPTIDES FOR ENHANCING VIRAL PRODUCTION” (Synvivia, Inc., priority 2022, published 2023)
